Patent US12498382B2, “Biomarkers for vitiligo” (INCYTE CORPORATION, priority 2019, dated 2025)

Test system: HaCaT cells
Experiment: Concentrations of inflammatory mediators produced by HaCaT cells stimulated with TNFα and IFNγ in presence/absence of JAK inhibitors (ProCarta)
Type: cell-based, human
Description: After 48 hours, cell culture media was removed from 24 well plates and replaced with 250 uL of media containing serial diluted drug, then incubated for 15 minutes at 37° C./5% CO2. […] The final concentration of Recombinant Human Interferon gamma and Recombinant Human Tumor Necrosis Factor alpha was 25 ng/mL of each cytokine. Cytokine stimulation added to wells containing drug brought the final concentrations for each drug treatment to 25 nM, 50 nM, 100 nM, and 200 nM. Treated plates were mixed by gentle agitation for 30 seconds then incubated for 24 hours at 37° C./5% CO2. At the end of the 24 hour incubation media was immediately removed from each plate.
Media was incubated with antibody conjugated beads designed to bind to the epitopes of specific target proteins and identify the bound protein through the bead's distinctive spectral pattern. Biotinylated detection antibodies, designed to bind to different epitopes of the same target proteins, and Streptavidin-PE are added to assay plates to quantify the amount of the target proteins. Assay plates were read on the Luminex 200 and data were expressed as Net Median Fluorescence Intensity. […] The concentration of each protein was extrapolated from the antigen standard curve and concentrations were expressed as pg/mL (Table 15).

[1] = TNFα 25 ng/mL + IFNγ 25 ng/mL, drug 25 nM
[2] = TNFα 25 ng/mL + IFNγ 25 ng/mL, drug 50 nM
[3] = TNFα 25 ng/mL + IFNγ 25 ng/mL, drug 100 nM
[4] = TNFα 25 ng/mL + IFNγ 25 ng/mL, drug 200 nM

Cc1n[nH]c(C)c1-c1cnn(C2(CC#N)CN(c3cc(F)c(C(=O)N[C@@H](C)C(F)(F)F)cc3F)C2)c1 [Cpc C]
BDNF concentration [1]: 4.01 ± 0.19 pg/mL | EGF concentration [1]: 1.54 ± 0.13 pg/mL | Eotaxin concentration [1]: 10.08 ± 0.15 pg/mL | FGF-2 concentration [1]: 21.41 ± 1.39 pg/mL | GM-CSF concentration [1]: 130 ± 3.15 pg/mL | GRO alpha concentration [1]: 548.93 ± 27.91 pg/mL | HGF concentration [1]: 13.66 ± 0.51 pg/mL | IFN alpha concentration [1]: 0.25 ± 0.01 pg/mL | bNGF concentration [1]: 7.86 ± 0.56 pg/mL | BDNF concentration [2]: 4 ± 0.23 pg/mL | EGF concentration [2]: 1.14 ± 0.17 pg/mL | Eotaxin concentration [2]: 9.84 ± 0.25 pg/mL | FGF-2 concentration [2]: 20.77 ± 1.37 pg/mL | GM-CSF concentration [2]: 126.18 ± 3.4 pg/mL | GRO alpha concentration [2]: 544.74 ± 37.71 pg/mL | HGF concentration [2]: 13.04 ± 0.28 pg/mL | IFN alpha concentration [2]: 0.26 ± 0 pg/mL | bNGF concentration [2]: 6.86 ± 0.6 pg/mL | BDNF concentration [3]: 4.24 ± 0.26 pg/mL | EGF concentration [3]: 1.35 ± 0.18 pg/mL | Eotaxin concentration [3]: 9.89 ± 0.22 pg/mL | FGF-2 concentration [3]: 20.84 ± 1.31 pg/mL | GM-CSF concentration [3]: 134.94 ± 4.45 pg/mL | GRO alpha concentration [3]: 575.98 ± 43.22 pg/mL | HGF concentration [3]: 13.53 ± 0.5 pg/mL | IFN alpha concentration [3]: 0.26 ± 0 pg/mL | bNGF concentration [3]: 6.93 ± 1.04 pg/mL | BDNF concentration [4]: 3.97 ± 0.22 pg/mL | EGF concentration [4]: 1.46 ± 0.17 pg/mL | Eotaxin concentration [4]: 9.89 ± 0.21 pg/mL | FGF-2 concentration [4]: 20.93 ± 1.37 pg/mL | GM-CSF concentration [4]: 132.6 ± 3.95 pg/mL | GRO alpha concentration [4]: 560.99 ± 43.32 pg/mL | HGF concentration [4]: 13.6 ± 0.53 pg/mL | IFN alpha concentration [4]: 0.26 ± 0 pg/mL | bNGF concentration [4]: 5.7 ± 0.76 pg/mL | BDNF concentration (no stimulation, drug 200 nM): 5.7 ± 0.31 pg/mL | EGF concentration (no stimulation, drug 200 nM): 1.12 ± 0.14 pg/mL | Eotaxin concentration (no stimulation, drug 200 nM): 2.28 ± 0.07 pg/mL | FGF-2 concentration (no stimulation, drug 200 nM): 8.77 ± 0.79 pg/mL | GM-CSF concentration (no stimulation, drug 200 nM): 9.48 ± 1.48 pg/mL | GRO alpha concentration (no stimulation, drug 200 nM): 236.87 ± 11.04 pg/mL | HGF concentration (no stimulation, drug 200 nM): 4.74 ± 0.47 pg/mL | IFN alpha concentration (no stimulation, drug 200 nM): 0.2 ± 0.03 pg/mL | IFN gamma concentration (no stimulation, drug 200 nM): 3.81 ± 0.74 pg/mL | bNGF concentration (no stimulation, drug 200 nM): 3.73 ± 0.63 pg/mL

CC(O)c1nc2cnc3ccsc3c2n1C1CCC(CC#N)OC1 (centres unmarked) [Cpc D]
BDNF concentration [1]: 4.08 ± 0.26 pg/mL | EGF concentration [1]: 1.49 ± 0.14 pg/mL | Eotaxin concentration [1]: 9.82 ± 0.2 pg/mL | FGF-2 concentration [1]: 22.89 ± 1.39 pg/mL | GM-CSF concentration [1]: 126.24 ± 3.53 pg/mL | GRO alpha concentration [1]: 539.42 ± 38.03 pg/mL | HGF concentration [1]: 13.47 ± 0.45 pg/mL | IFN alpha concentration [1]: 0.26 ± 0.01 pg/mL | bNGF concentration [1]: 7.44 ± 0.63 pg/mL | BDNF concentration [2]: 3.97 ± 0.25 pg/mL | EGF concentration [2]: 1.31 ± 0.19 pg/mL | Eotaxin concentration [2]: 9.58 ± 0.21 pg/mL | FGF-2 concentration [2]: 20.96 ± 1.43 pg/mL | GM-CSF concentration [2]: 124.89 ± 3.37 pg/mL | GRO alpha concentration [2]: 555.54 ± 44.74 pg/mL | HGF concentration [2]: 13.27 ± 0.45 pg/mL | IFN alpha concentration [2]: 0.26 ± 0 pg/mL | bNGF concentration [2]: 6.17 ± 0.74 pg/mL | BDNF concentration [3]: 4.18 ± 0.28 pg/mL | EGF concentration [3]: 1.23 ± 0.16 pg/mL | Eotaxin concentration [3]: 10.02 ± 0.19 pg/mL | FGF-2 concentration [3]: 21.77 ± 1.51 pg/mL | GM-CSF concentration [3]: 133.19 ± 3.97 pg/mL | GRO alpha concentration [3]: 578.28 ± 48.32 pg/mL | HGF concentration [3]: 13.75 ± 0.4 pg/mL | IFN alpha concentration [3]: 0.26 ± 0 pg/mL | bNGF concentration [3]: 7.12 ± 0.8 pg/mL | BDNF concentration [4]: 4.03 ± 0.28 pg/mL | EGF concentration [4]: 1.45 ± 0.17 pg/mL | Eotaxin concentration [4]: 9.85 ± 0.17 pg/mL | FGF-2 concentration [4]: 20.96 ± 1.34 pg/mL | GM-CSF concentration [4]: 130.42 ± 3.44 pg/mL | GRO alpha concentration [4]: 564.53 ± 52.35 pg/mL | HGF concentration [4]: 13.8 ± 0.48 pg/mL | IFN alpha concentration [4]: 0.25 ± 0.02 pg/mL | bNGF concentration [4]: 6.73 ± 0.61 pg/mL | BDNF concentration (no stimulation, drug 200 nM): 5.66 ± 0.38 pg/mL | EGF concentration (no stimulation, drug 200 nM): 1.24 ± 0.09 pg/mL | Eotaxin concentration (no stimulation, drug 200 nM): 2.08 ± 0.07 pg/mL | FGF-2 concentration (no stimulation, drug 200 nM): 8.19 ± 1.07 pg/mL | GM-CSF concentration (no stimulation, drug 200 nM): 8.49 ± 1.84 pg/mL | GRO alpha concentration (no stimulation, drug 200 nM): 234.42 ± 14.21 pg/mL | HGF concentration (no stimulation, drug 200 nM): 3.68 ± 0.39 pg/mL | IFN alpha concentration (no stimulation, drug 200 nM): 0.22 ± 0.03 pg/mL | IFN gamma concentration (no stimulation, drug 200 nM): 4.52 ± 0.68 pg/mL | bNGF concentration (no stimulation, drug 200 nM): 3.47 ± 0.48 pg/mL
